Reference: US20040202736A1, “Method of ameliorating side-effects of SERMs” (Pharmaton S.A., priority 2003, published 2004)
Entries after “also recorded” stand apart in the source; their conditions may differ.

How the values were obtained:
[1] = test system: vasomotor symptoms of patients treated with tamoxifen; experiment: Separate uncontrolled experiences to control vasomotor symptoms of patients treated with tamoxifen; assay type: in vivo, women; settings: given to patients treated with tamoxifen
[2] = test system: hot flushes among breast cancer survivors under tamoxifen adjuvant therapy
[3] = test system: breast cancer survivors women; experiment: Clinical practice: 1,600 breast cancer survivors treated with tamoxifen, adverse effects; assay type: in vivo
Source text: The improvements in recurrence-free survival and in overall survival have been between the ranges reported by the published literature. However, into the total treated group, we have found only one case of endometrial cancer, well differentiated and of small size (table 2).
Many of these women had recently stopped HRT, at the time the diagnosis of breast cancer was made.

[4] = test system: invasive breast cancer; settings: cited from earlier work
[5] = usual-care n = 46 (six months), intervention n = 90 (end of study), tamoxifen 20 mg/day, BNO 1055 20 mg twice a day
[6] = usual-care n = 46, intervention n = 90

Q: For Clc1cccc(Cl)c1N=C1NCCN1 [clonidine], which “control of vasomotor symptoms / severe hot flushes” value [1] is on record?
A: very unsatisfactory results; also recorded: failed to reach a satisfactory control

Q: Which “control of vasomotor symptoms / severe hot flushes” value [1] does the source give for CC(=O)[C@H]1CC[C@H]2[C@@H]3CCC4=CC(=O)CC[C@]4(C)[C@H]3CC[C@]12C [progesterone] here?
A: very unsatisfactory results; also recorded: failed to reach a satisfactory control

Q: With CC/C(=C(\c1ccccc1)c1ccc(OCCN(C)C)cc1)c1ccccc1 [Tamoxifen, Z-2-[4-(1,2-diphenyl-1-butenyl)phenoxy]-N,N-dimethyl-ethylamine] as the compound, how does the “decline of bimonthly reported numbers of hot flushes from baseline” value ([2]; baseline vs six months of tamoxifen adjuvant therapy, severe or moderate hot flushes, not significant, P=0.71) read?
A: 5 to 9%

Q: What about the “minor adverse events, number” value ([2]; during the study) of the same compound?
A: seven

Q: And the serious events ([2]; during the study)?
A: No serious events

Q: And the “Hot Flushes Severe, number of patients” value [2, 5]?
A: 34

Q: And the “Hot Flushes Severe, proportion of patients” value [2, 5]?
A: 73.9%

Q: And the “Hot Flushes Moderate, number of patients” value [2, 6]?
A: 12

Q: What about the “Hot Flushes Moderate, proportion of patients” value [2, 6] of the same compound?
A: 26.1%

Q: And the “patients who reported hot flushes” value ([3]; postmenopausal patients, tamoxifen 20 mg/day)?
A: 25%

Q: And the “patients who reported hot flushes” value ([3]; premenopausal women, mostly severe, tamoxifen 20 mg/day)?
A: up to 74%

Q: And the withdrawal ([3]; tamoxifen 20 mg/day)?
A: < 5%

Q: What about the “cases of endometrial cancer” value ([3]; total treated group (1,600), well differentiated and of small size) of the same compound?
A: one

Q: And the “reduction of the risk of invasive breast cancer” value ([4]; 20 mg/day, 69 months of follow-up)?
A: 49%

Q: And the “effect on ER-negative tumors” value ([4]; 20 mg/day)?
A: no effect

Q: And the “incidence of adverse events, including endometrial cancer” value ([4]; women younger than 50)?
A: no increased incidence

Q: For Vitamin E, which “control of vasomotor symptoms / severe hot flushes” value [1] is on record?
A: very unsatisfactory results; also recorded: failed to reach a satisfactory control
